In patent US9463189B2 (BPV Holdings, LLC, priority 2007, dated 2016):
Where a name gives a salt, the structure may show the parent alone.

System: TGFβ-1
Test: TGFβ-1 levels in liver lysates of NASH mice
Type: in vivo, C57B1/6J mice
Source text: Early Steatosis Model: C57B1/6J mice (22-39 days old) mice were used for the study. Mice were fed normal chow food (Lab Diet, 5P14Prolab Animal Diet, PMI Nutritional International, Brentwood, Mo., Cat# RMH 2500) or 58% high fat diet (HFD, 58 kcal % fat and corn starch with purple dye, Research Diets, New Brunswick, N.J., Cat# D12330 equivalent to Western diet) for 120-150 days. […] This group is referred to as the HFD-low body group in FIG. 1A (insulin & liver fat accumulation˜normal). On the other hand, one fifth of the mice gained 60-70% higher body weight (compared to normal chow fed mice) while on the same HFD diet (NASH group, very high insulin and liver fat) further shown in FIG. 1A. The majority of the mice (three fifths) gained body weight as expected on the HFD (30-40% higher than the normal chow fed mice) and is referred to as the DIO group (normal to moderately high insulin and liver fat accumulation) as shown in FIG. 1A. Control animals (n=5) representative of the HFD-low body weight and the NASH groups were sacrificed prior to starting the rest of the animals on treatment with the Compound 2 (5 or 10 mg/Kg/day). […]
Following 120-150 days on the HFD, mice in the NASH group were treated with Compound 2 (5 or 10 mg/Kg/day) or vehicle (10% Encapsin) for 42 days. […] Body weight and food intake was measured throughout the study.

C[C@@H]1CN(Cc2ccc(OC(F)(F)F)cc2)C[C@H](C)N1S(=O)(=O)c1cccc2c1C[C@@H](C(=O)O)C2 [Compound 2, (S)-4-[cis-2,6-Dimethyl-4-(4-trifluoromethoxy-benzyl)-piperazine-1-sulfonyl]-indan-2-carboxylic acid tosylate]
decrement of TGFβ levels in the liver lysates (10 mg/Kg/day, p<0.01, FIG. 3A): 49%
levels of inflammatory marker TGFβ-1 (oral administration, NASH mice, p<0.05 vs. vehicle): normalized levels
